From PubChem BioAssay (NCI)
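Protocol summary: plate cells (96-well), add compound at 5 concentrations, incubate 48 h, interpolate endpoints linearly. TGI denotes the concentration required for complete inhibition of growth.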

Assays:
Experiment in all cases: growth of human tumour cells (NCI), 48 h
IGROV1 ovarian = test system: IGROV1 ovarian
SW-620 colon = test system: SW-620 colon
OVCAR-8 ovarian = test system: OVCAR-8 ovarian
CCRF-CEM leukemia = test system: CCRF-CEM leukemia
NCI-H23 lung = test system: NCI-H23 lung
DU-145 prostate = test system: DU-145 prostate
NCI/ADR-RES ovarian = test system: NCI/ADR-RES ovarian
MOLT-4 leukemia = test system: MOLT-4 leukemia
M14 melanoma = test system: M14 melanoma
SN12C renal = test system: SN12C renal

SMILES | TGI (IGROV1 ovarian) | TGI (SW-620 colon) | TGI (OVCAR-8 ovarian) | TGI (CCRF-CEM leukemia) | TGI (NCI-H23 lung) | TGI (DU-145 prostate) | TGI (NCI/ADR-RES ovarian) | TGI (MOLT-4 leukemia) | TGI (M14 melanoma) | TGI (SN12C renal)
COc1nc(N(C)C)nc2c1n(C)c[n+]2C | > 100 µM | > 100 µM | > 100 µM | > 100 µM | > 100 µM | > 100 µM | > 100 µM | > 100 µM | > 100 µM | > 100 µM
O=C(CSCC(=O)N/N=C/c1cccs1)N/N=C/c1cccs1 | > 100 µM | > 100 µM | > 100 µM | > 100 µM | > 100 µM | > 100 µM | > 100 µM | > 100 µM | > 100 µM | > 100 µM
COc1ccc2c(c1)C(N)=C(c1ccccc1)C2=O | > 100 µM | > 100 µM | > 100 µM | > 100 µM | > 100 µM | > 100 µM | > 100 µM | > 100 µM | > 100 µM | > 100 µM
CN(C)/N=C/c1cn(C)c(=O)n(C)c1=O | > 100 µM | > 100 µM | > 100 µM | > 100 µM | > 100 µM | > 100 µM | > 100 µM | > 100 µM | > 100 µM | > 100 µM
Cc1ccncc1.F[B-](F)(F)F.[Pt+2].c1ccc(-c2cccc(-c3ccccn3)n2)nc1 | > 30.6 µM | 42.6 µM | 31 µM | > 100 µM | > 88 µM | > 100 µM | 11.7 µM | 39.1 µM | 13.5 µM | > 100 µM
Cc1ccc(C(=O)N/N=C(\N=Nc2cccc(Cl)c2)c2ccc(N(CCC#N)CCC#N)cc2C)cc1 | > 100 µM | > 100 µM | > 100 µM | > 100 µM | > 100 µM | > 100 µM | > 100 µM | > 100 µM | > 100 µM | > 100 µM
COc1cc(/C=C/C(=O)c2c(=O)o[nH][n+]2-c2ccccc2)ccc1[O-] | 9.66 µM | 5.85 µM | 8.09 µM | 3.52 µM | 8.78 µM | 5.72 µM | 7.22 µM | 5.59 µM | 9.64 µM | 5.3 µM
CCOC(=O)c1c(CN2CCNCC2)nc2ccccc2c1-c1ccccc1 | 29.2 µM | 34.9 µM | 30.6 µM | 38.2 µM | 36 µM | 31.3 µM | 34.4 µM | 25 µM | 28.2 µM | 28.2 µM
N#CC(C#N)=C1C(C#N)=C(N)NC12OCCO2 | > 100 µM | > 100 µM | > 100 µM | > 100 µM | > 100 µM | > 100 µM | > 100 µM | > 100 µM | > 100 µM | > 100 µM
CCOC(=O)C(=[N+]=[N-])C(=O)Nc1nn2nnnc2c2ccccc12 | > 100 µM | > 100 µM | > 100 µM | > 100 µM | > 100 µM | > 100 µM | > 100 µM | > 100 µM | > 100 µM | > 100 µM
Cc1ccc(S(=O)(=O)NNC(=O)c2cc(C)ccc2NC(=O)C23CC4CC(CC(C4)C2)C3)cc1 | 30.6 µM | > 100 µM | > 100 µM | > 100 µM | > 100 µM | > 100 µM | > 100 µM | > 100 µM | > 100 µM | > 100 µM
COc1cc2c(cc1OCCCC(=O)Nc1cc(C(=O)Nc3cc(C(=O)Nc4cc(C(=O)NCCCN(C)C)n(C)n4)n(C)n3)n(C)n1)N=CC1CCCN1C2=O (stereo not given) | 7.98 µM | > 100 µM | > 100 µM | > 100 µM | 66.5 µM | > 100 µM | 81.7 µM | > 100 µM | 95.2 µM | 42.3 µM
N=c1oc2ccc3ccccc3c2cc1C(N)=O | 70.8 µM | > 100 µM | > 100 µM | > 100 µM | > 100 µM | > 100 µM | > 100 µM | > 100 µM | > 100 µM | > 100 µM
NC(=S)N/N=C\c1ccc(OCc2cccc(COc3ccc(/C=N/NC(N)=S)cc3)n2)cc1 | > 100 µM | > 100 µM | > 100 µM | > 100 µM | > 100 µM | > 100 µM | > 100 µM | > 100 µM | > 100 µM | > 100 µM
CC1(C)OCC(C(O)C2OC(C)(C)OC2C=O)O1 (stereo not given) | > 100 µM | > 100 µM | > 100 µM | > 100 µM | > 100 µM | > 100 µM | > 100 µM | > 100 µM | > 100 µM | > 100 µM
